Patent publication US11712434B2, “Compound having anti-cancer effect, and preparation method therefor and use thereof” (3D MEDICINES (BEIJING) CO., LTD., priority 2016, dated 2023)
Each block holds one compound with its values, some of them ahead of it.

Tests used:
Assay in all cases: Cell proliferation assay (Alamar Blue)
Assay type in all cases: cell-based
CCRF-CEM = CCRF-CEM tumor cell line, 6 days culture
Experimental: (§1) 1. Instruments and Materials • Thermo 311 CO2 incubator; Haier biosafety cabinet; Molecular Devices microplate reader; Xiangyi brand L530 desktop low speed centrifuge; Olympus IX51 inverted fluorescence microscope, DMEM, RPMI 1640, MEM, DMEM/F12 1:1 medium, Fetal bovine serum, 0.25% trypsin solution, phosphate buffer (Thermo Fisher Shanghai Co., Ltd.); sigma dimethyl sulfoxide (DMSO), resazurin; 54 commercial tumor cell lines (including 26 liver cancer cell lines). Experimental drugs: compounds 1-12 and active drug Linifanib; chemotherapeutic drug Doxorubicin (HY-15142; Shanghai Qianyuan Biomedical Technology Co., Ltd.).
(§2) 2. Experimental Methods • 2.1 Cultivation of Different Cell Lines • 54 cell lines were cultured in a culture medium containing fetal bovine serum and placed in a 5% CO2 incubator at 37° C. for incubation. The cells were all grown in an adherent state, and the growth was observed under an inverted microscope, and subculture was performed when the cell confluence rate reached 80%-90%. The proportion and quantity of passage were determined by experimental needs. The ratio of subculture of this cell line was generally 1:2^˜1:3. • 2.2 Inhibition Effect on the Proliferation of Different Tumor Cell Lines • Cell test: 54 cell lines in logarithmic growth phase were inoculated in 96-well culture plates at 500^˜1×10^4/well (the optimal seeding density of each cell line was determined in pre-experiment), After incubating at 37° C. for 4 h in a 5% CO2 humidification incubator, added 10 μL of compounds 1-12 or Linifanib to each well, and tested 9 drug concentration gradients for each compound (diluted from the highest concentration of the test by 3.16 times). The solubility of each compound was different at a starting concentration of 100 or 30 μM, respectively. The QC reference compound Doxorubicin was added simultaneously to each cell line test, and the final drug concentrations were 10, 3.16, 1, 0.31, 0.1, 0.03, 0.01, 0.003, and 0.001 μM, respectively. In addition, a positive control group (100% inhibition) and a negative control group (0% inhibition) were set at the same time. The drug group was repeated for 2 wells per concentration, and the positive control group and the negative control group were repeated for 6 wells. After the culture was continued for 6 days in the incubator, AlamarBlue test operation was followed; • AlamarBlue test procedure: Incubated with 10 μL of AlamarBlue reagent per well for 1-4 h, shook for 1-2 min, MD microplate reader EX: 560 nm, EM: 590 nm wavelength to measure fluorescence, recorded the results, calculated the cell inhibition rate of the compound of the invention. Cell inhibition rate (%)=(A0% inhibition−A administration)/(A0% inhibition−A100% inhibition)×100%, and then using the method of nonlinear regression using GraphPad Prism 5.0 or MATILAB software (usually using four parameters) to graph and obtain a drug dose response curve to obtain an IC50 value of the compound of the present invention acting on a cancer cell line.

DLD1 = DLD1 tumor cell line, 6 days culture
Experimental: as §1, §2

DU145 = DU145 tumor cell line, 6 days culture
Experimental: as §1, §2

HCCLM3 = HCCLM3 tumor cell line, 6 days culture
Experimental: as §1, §2

HEPG2 = HEPG2 liver cancer cell line, 6 days culture
Experimental: as §1, §2

HUH6 = HUH6 liver cancer cell line, 6 days culture
Experimental: as §1, §2

HuTu80 = HuTu80 tumor cell line, 6 days culture
Experimental: as §1, §2

JHH1 = JHH1 liver cancer cell line, 6 days culture
Experimental: as §1, §2

JHH2 = JHH2 liver cancer cell line, 6 days culture
Experimental: as §1, §2

JHH4 = JHH4 liver cancer cell line, 6 days culture
Experimental: as §1, §2

JHH5 = JHH5 liver cancer cell line, 6 days culture
Experimental: as §1, §2

JHH7 = JHH7 liver cancer cell line, 6 days culture
Experimental: as §1, §2

KASUMI-1 = KASUMI-1 (leukemia cells), 6 days culture
Experimental: as §1, §2

KM12 = KM12 tumor cell line, 6 days culture
Experimental: as §1, §2

LNCAP-clone-FGC = LNCAP-clone-FGC tumor cell line, 6 days culture
Experimental: as §1, §2

Li-7 = Li-7 liver cancer cell line, 6 days culture
Experimental: as §1, §2

MFM-223 = MFM-223 tumor cell line, 6 days culture
Experimental: as §1, §2

NCI-H1648 = NCI-H1648 tumor cell line, 6 days culture
Experimental: as §1, §2

NCI-H1703 = NCI-H1703 (lung cancer cells), 6 days culture
Experimental: as §1, §2

NCI-H2170 = NCI-H2170 tumor cell line, 6 days culture
Experimental: as §1, §2

NCI-H661 = NCI-H661 tumor cell line, 6 days culture
Experimental: as §1, §2

SNU182 = SNU182 liver cancer cell line, 6 days culture
Experimental: as §1, §2

SNU387 = SNU387 liver cancer cell line, 6 days culture
Experimental: as §1, §2

SNU423 = SNU423 liver cancer cell line, 6 days culture
Experimental: as §1, §2

SNU475 = SNU475 liver cancer cell line, 6 days culture
Experimental: as §1, §2

SNU761 = SNU761 liver cancer cell line, 6 days culture
Experimental: as §1, §2

SW620 = SW620 tumor cell line, 6 days culture
Experimental: as §1, §2

IC50 (CCRF-CEM; Homo sapiens, 144 h): 5.46 µM
IC50 (DLD1; Homo sapiens, DLD-1, 144 h): 10.5 µM
IC50 (DU145; Homo sapiens, DU-145, 144 h): 3.62 µM
IC50 (HCCLM3; Homo sapiens, 144 h): 7.76 µM
IC50 (HEPG2; Homo sapiens, 144 h): 0.97 µM
IC50 (HUH6; Homo sapiens, HuH-6, 144 h): 43.8 µM
IC50 (LNCAP-clone-FGC; Homo sapiens, 144 h): 14.8 µM
IC50 (NCI-H1648; Homo sapiens, 144 h): 7.42 µM
IC50 (NCI-H1703; Homo sapiens, 144 h): 0.02 µM
IC50 (NCI-H2170; Homo sapiens, 144 h): 4.28 µM
IC50 (NCI-H661; Homo sapiens, 144 h): 18 µM
IC50 (SNU182; Homo sapiens, SNU-182, 144 h): 22.1 µM
IC50 (SNU387; Homo sapiens, SNU-387, 144 h): 20.1 µM
IC50 (SNU423; Homo sapiens, SNU-423, 144 h): 15.3 µM
IC50 (SNU475; Homo sapiens, SNU-475, 144 h): 4.39 µM
IC50 (SNU761; 144 h): 8.73 µM
IC50 (SW620; Homo sapiens, SW-620, 144 h): 3.46 µM
SMILES: Cc1ccc(F)c(NC(=O)Nc2ccc(-c3cccc4[nH]nc(NC(=O)C[C@H](N)C(=O)O)c34)cc2)c1 [Compound 10]
IC50 (HuTu80; Homo sapiens, 144 h): 1.84 µM
IC50 (JHH1; 144 h): 14.5 µM
IC50 (JHH2; JHH-2, 144 h): 36.8 µM
IC50 (JHH4; JHH-4, 144 h): 14.4 µM
IC50 (JHH5; 144 h): 13.4 µM
IC50 (JHH7; 144 h): 1.36 µM
IC50 (KASUMI-1; Homo sapiens, 144 h): 0.01 µM
IC50 (KM12; Homo sapiens, 144 h): 2.43 µM
IC50 (Li-7; 144 h): 5.28 µM
IC50 (MFM-223; Homo sapiens, 144 h): 2.64 µM

IC50 (CCRF-CEM): > 100 µM
IC50 (DLD1): > 100 µM
IC50 (DU145): > 100 µM
IC50 (HCCLM3): > 100 µM
IC50 (HEPG2): 30.1 µM
IC50 (HUH6): > 100 µM
IC50 (LNCAP-clone-FGC): > 100 µM
IC50 (NCI-H1648): > 100 µM
IC50 (NCI-H1703): 0.83 µM
IC50 (NCI-H2170): > 100 µM
IC50 (NCI-H661): > 100 µM
IC50 (SNU182): > 100 µM
IC50 (SNU387): > 100 µM
IC50 (SNU423): > 100 µM
IC50 (SNU475): > 100 µM
IC50 (SNU761): > 100 µM
IC50 (SW620): > 100 µM
SMILES: Cc1ccc(F)c(NC(=O)Nc2ccc(-c3cccc4[nH]nc(NC(=O)CCCCCNC(=O)C[C@H](N)C(=O)O)c34)cc2)c1 [Compound 11]
IC50 (HuTu80): 63.1 µM
IC50 (JHH1): > 100 µM
IC50 (JHH2): > 100 µM
IC50 (JHH4): > 100 µM
IC50 (JHH5): > 100 µM
IC50 (JHH7): > 100 µM
IC50 (KASUMI-1): 1.09 µM
IC50 (KM12): > 100 µM
IC50 (Li-7): > 100 µM
IC50 (MFM-223): > 100 µM

IC50 (CCRF-CEM): > 100 µM
IC50 (DLD1): > 100 µM
IC50 (DU145): 83 µM
IC50 (HCCLM3): > 100 µM
IC50 (HEPG2): 9.27 µM
IC50 (HUH6): > 100 µM
IC50 (LNCAP-clone-FGC): 70.5 µM
IC50 (NCI-H1648): > 100 µM
IC50 (NCI-H1703): 0.25 µM
IC50 (NCI-H2170): 59.2 µM
IC50 (NCI-H661): > 100 µM
IC50 (SNU182): > 100 µM
IC50 (SNU387): > 100 µM
IC50 (SNU423): > 100 µM
IC50 (SNU475): > 100 µM
IC50 (SNU761): > 100 µM
IC50 (SW620): 55.6 µM
SMILES: Cc1ccc(F)c(NC(=O)Nc2ccc(-c3cccc4[nH]nc(NC(=O)CCCCCCCCCCCNC(=O)C[C@H](N)C(=O)O)c34)cc2)c1 [Compound 12]
IC50 (HuTu80): 44.4 µM
IC50 (JHH1): > 100 µM
IC50 (JHH2): > 100 µM
IC50 (JHH4): > 100 µM
IC50 (JHH5): > 100 µM
IC50 (JHH7): 67.2 µM
IC50 (KASUMI-1): 0.49 µM
IC50 (KM12): 82.5 µM
IC50 (Li-7): 90.4 µM
IC50 (MFM-223): 53.4 µM
